# Laboratory results: patent publication US6569883B1, “Medicaments” (Glaxo Group Limited, priority 1985, dated 2003)
# Experiments:
# Type in all cases: in vivo
# [1] = tested on: ferrets; assay: Cisplatin-induced emesis in ferrets, test compound i.p.; details: ferret, cisplatin 9 mg/kg i.p. + test compound 1 mg/kg i.p. 30 minutes before and 1 hour after cisplatin
# Procedure: Thus cisplatin was administered intraperitoneally to a group of 4 male ferrets at a dose of 9 mg/kg, and the time to onset of emesis and the number of emetic episodes were recorded. In a second group of four male ferrets the test compound was administered at a dose of 1 mg/kg i.p. 30 minutes before and 1 hour after intraperitoneal administration of cisplatin.
# [2] = tested on: ferrets; assay: Cisplatin-induced emesis in ferrets, test compound i.v.; details: ferret
# Procedure: Both the test compound and cisplatin were prepared and administered in normal saline. The dose of test compound was calculated as the free base.
# Emesis was induced in groups of 6 male ferrets weighing between 1.5-2 kg, by intravenous administration of cisplatin at a dose of 10 mg/kg. The onset of emesis occurred between 38 and 75 minutes after injection and over a period of 2 hours the number of vomits/retches (episodes) was in the range 30-62 (average 42±5 vomits/retches per 2 h). Behavioural changes characteristic of emesis were also noted.
# The test compound was administered to groups of 6 male ferrets (1.5-2 kg) by intravenous administration at doses of 0.01, 0.1 and 1 mg/kg, immediately prior to administration of cisplatin as described above.
# [3] = tested on: guinea-pigs; assay: Gastric emptying in guinea-pigs (passage of barium sulphate spheres, X-ray location); details: guinea pig
# Procedure: Test compound: 1,2,3,9-tetrahydro-9-methyl-3-[(2-methyl-1H-imidazol-1-yl)methyl]-4H-carbazol-4-one hydrochloride dihydrate. The effect of the test compound on gastric emptying was determined in guinea-pigs by following the progress of polystyrene-coated barium sulphate spheres (1 mm diameter) through the gut. The experimental method was based on that described by B. Costall et. al., Eur. J. Pharmacol 91, 197-205, 1983 and B. Cox et. al., Br. J. Pharmacol. 70, 104, 1980.
# The spheres (approximatley 30 in number) were administered orally in 0.2 ml carboxymethylcellulose with 0.05 ml glycerine. At the same time, the test compound was administered intraperitoneally at doses of 0.001, 0.01 and 0.1 mg/kg. The control animals received saline, administered intraperitoneally, in place of the test compound. Passage of the spheres through the gut was monitored at 30-60 minute intervals over a period of 2 hours by X-ray location. The number of spheres leaving the stomach was recorded and expressed as a percentage of the total.
# [4] = cisplatin 10 mg/kg i.v. + test compound 0.01 mg/kg i.v.
smiles,measurement,setting,value
"Cc1nccn1CC1CCc2c(c3ccccc3n2C)C1=O.Cl.O.O (stereo not drawn) [test compound, 1,2,3,9-tetrahydro-9-methyl-3-[(2-methyl-1H-imidazol-1-yl)methyl]-4H-carbazol-4-one hydrochloride dihydrate]","Emetic response (onset of emesis, emetic episodes, retches)",[1],emetic response completely
same,Duration of emesis,[2]; [4],1 h
same,Intensity of emesis,[2]; [4],17 ± 2.9 episodes 2 h
same,Onset of emesis,[2]; [4],89 to 109 min
same,Emesis and behavioural changes,[2]; cisplatin 10 mg/kg i.v. + test compound 0.1 mg/kg i.v.,Emesis and behavioural changes were completely
same,Emesis and behavioural changes,[2]; cisplatin 10 mg/kg i.v. + test compound 1 mg/kg i.v.,Emesis and behavioural changes were completely
same,Mean % Increase in gastric emptying (± s.e.),"[3]; 0.001 mg/kg i.p., 1 hour",21 ± 8.7%
same,Mean % Increase in gastric emptying (± s.e.),"[3]; 0.001 mg/kg i.p., 2 hours",57 ± 10.5%
same,Mean % Increase in gastric emptying (± s.e.),"[3]; 0.01 mg/kg i.p., 1 hour",33 ± 3.6%
same,Mean % Increase in gastric emptying (± s.e.),"[3]; 0.01 mg/kg i.p., 2 hours",76.5 ± 11.2%
same,Mean % Increase in gastric emptying (± s.e.),"[3]; 0.1 mg/kg i.p., 1 hour",47 ± 7.6%
same,Mean % Increase in gastric emptying (± s.e.),"[3]; 0.1 mg/kg i.p., 2 hours",68 ± 5.0%
